Measurements from patent publication US5340823A, “Organosilane derivatives, pharmaceutical compositions containing them and process for preparing same” (Richter Gedeon Vegyeszeti Gyar RT., priority 1990, dated 1994).
Where two headings read alike, the source gives them in different places.

Legend:
[1] = tested on: Straub's tail; assay: Straub's tail test (morphine hydrochloride) on mice; format: in vivo, mice (male OF-1); details: for ED50: Mus musculus, ip, read-out: Straub's tail ED50 i.p.
Procedure: Method 2: Straub's tail test
The method of Novack [Drug Development Res. 2, 383 (1982)] was used with some modification. Groups consisting of 10 male OF-1 mice each weighing 19 to 21 g were intraperitoneally treated with 60 mg/kg of morphine hydrochloride. The formation (development) of Straub's stail was judged by 15 minutes after the morphine treatment. It was considered to be positive when the animal permanently kept his tail upwards in an angle being steeper than 45°. A pretreatment was carried out with various doses of the compound to be tested by 20 minutes before the time of reading. The ED50 value, i.e. the dose inhibiting the positive response in 50% of the animals, was calculated by using the method of Litchfield and Wilcoxon.
(The above author found a good correlation between the effectivity shown in this test method and the clinical effect of central muscle relaxants.)

[2] = tested on: flexor reflex; assay: Flexor reflex on anaesthetized cats; format: in vivo
Procedure: Method 3: Flexor reflex on anaesthetized cats
Chloralose-anaesthetized cats of both sexes weighing 2.2 to 5.4 kg each were used in these experiments. The flexor reflex of the animals was assessed by using the quantitative electromyographic method of Farkas et al. [Pharmacol. Res. Comm. 20, Suppl. 1, 141 (1988)].
[…] For characterization of duration of the effect the time (T75%) is shown, which passed after administration of this dose up to the return to 75% of the control value.
(§1) For the verification of the oral activity the tremor test was used on mice whereas the flexor reflex was investigated by using intraduodenal (i.d.) administration.

[3] = Acute toxicity and therapeutic ratio on mice; format: in vivo; details: mouse, in vivo; for selectivity ratio: mice, LD50 to tremor ED50
Procedure: (§2) Method 4: Study on the acute toxicity
(§3) These experiments were carried out on groups consisting of 10 male and 10 female mice each weighing 19 to 21 g. For the determination of the intravenous toxicity the substances to be tested were dissolved in 10 ml/kg of body-weight of physiological saline and injected to the tail vein of CFLP mice during 1 minute. For evaluation of the oral toxicity the substances to be tested were dissolved in 10 ml/kg of body-weight of physiological saline and introduced to the stomach of OF-1 mice by using a rigid gastric tube. The perishing ratio of the animals was evaluated by 48 hours following the administration of the substance to be tested. The LD50 value, i.e. the dose causing the death of 50% of the animals was calculated by using the method of Litchfield and Wilcoxon. The therapeutic (safety) ratio was determined as the ratio of the LD50 value to ED50 value shown in the GYKI-20039-induced tremor test.

[4] = tested on: GYKI-20039-induced tremor; assay: GYKI-20039-induced tremor test on mice; format: in vivo, mice (male CFLP); details: for ED50: Mus musculus
Procedure: After administration of the test substance the mice were suspended on an isometric dynamometer in a light plastic box and the strength of the tremor was measured and quantified by electronic integration. The tremor strength of mice was averaged in the 4th-5th minutes following the treatment with 10 the test substance.
The animals were pretreated with various doses of the muscle relaxants to be tested before administration of the test substance. The time of pretreatment was 0 in intravenous examinations, whereas a pretreatment time of 10 minutes was used in oral investigations.
as §1

[5] = tested on: mice; assay: Acute toxicity and therapeutic ratio on mice; format: in vivo; details: mice, i.v. and oral
Procedure: as §2, §3

[6] = tested on: GYKI-20039-induced tremor; details: mice; literature (Coward et al.; Andrasi et al.); cited from earlier work
[7] = mice, i.p., 60 mg/kg morphine hydrochloride, Table 1
[8] = 10 mg/kg i.v., time up to return to 75% of control
[9] = iv, CFLP mice, i.v., read-out: Acute toxicity LD50 i.v.
[10] = iv, i.v., read-out: Therapeutic ratio LD50/ED50 i.v.
[11] = po, OF-1 mice, p.o., read-out: Acute toxicity LD50 p.o.
[12] = po, p.o., read-out: Therapeutic ratio LD50/ED50 p.o.
[13] = iv, Table 3, read-out: Muscle relaxant effect, Tremor ED50 i.v.
[14] = po, Table 3, read-out: Muscle relaxant effect, Tremor ED50 p.o.
[15] = po, pretreatment 10 minutes, Table 2, read-out: Tremor test ED50 p.o.
[16] = iv, pretreatment time 0, Table 1, read-out: GYKI-20039 (tremor) ED50 i.v.

**Q.** Which ED50 [1, 7] does the source give for `Cc1ccc(C(=O)C(C)CN2CCCCC2)cc1` (centres unmarked) [Tolperisone, tolperisone, reference compound] here?
**A.** Its ED50 is 63 mg/kg.

**Q.** And the “Flexor reflex, duration of effect T75%” value [2, 8]?
**A.** Its value is 50 min.

**Q.** What about the “Flexor reflex, T75%” value ([2]; 25 mg/kg i.d.) of the same compound?
**A.** The value was 60 min.

**Q.** What about the “Flexor reflex, maximum inhibition” value ([2]; 25 mg/kg i.d.) of the same compound?
**A.** The value was 33.1%.

**Q.** What about the “Flexor reflex, T75%” value ([2]; 50 mg/kg i.d.) of the same compound?
**A.** The value was 140 min.

**Q.** And the “Flexor reflex, maximum inhibition” value ([2]; 50 mg/kg i.d.)?
**A.** The value was 76.6%.

**Q.** And the LD50 at 48 h [3, 9]?
**A.** Its LD50 at 48 h is 39.8 mg/kg.

**Q.** And the selectivity ratio [3, 10]?
**A.** The selectivity ratio was 3.9.

**Q.** And the LD50 at 48 h [3, 11]?
**A.** The LD50 at 48 h was 612 mg/kg.

**Q.** And the selectivity ratio [3, 12]?
**A.** The selectivity ratio was 1.8.

**Q.** What about the ED50 [4, 13] of the same compound?
**A.** The ED50 was 10.1 mg/kg.

**Q.** What about the ED50 [4, 14] of the same compound?
**A.** Its ED50 is 338 mg/kg.

**Q.** And the ED50 [4, 15]?
**A.** The ED50 was 338 mg/kg.

**Q.** For `Cc1ccc(C[Si](C)(C)N2CCCCC2)c(C)c1.Cl` [Example 34], which “Straub's tail ED50 i.p.” value [1, 7] is on record?
**A.** The value was 30.7 mg/kg.

**Q.** And the “Flexor reflex, duration of effect T75%” value ([2]; i.v., 5 mg/kg (footnote *))?
**A.** The value was 120 min.

**Q.** What about the “inhibition of flexor reflex” value ([2]; i.v., 5 mg/kg (footnote *)) of the same compound?
**A.** The value was 53%.

**Q.** And the “GYKI-20039 (tremor) ED50 i.v.” value ([4]; i.v., pretreatment time 0, Table 1)?
**A.** Its value is 8.7 mg/kg.

**Q.** Which results are given for `C[Si](C)(Cc1ccc(F)cc1)CN1CCCC1.Cl` [Example 10, N-{[dimethyl-(4-fluorobenzyl)silyl]methyl}-pyrrolidine hydrochloride]?
**A.** ED50 [1]: 22 mg/kg; Flexor reflex, duration of effect T75% [2, 8]: > 180 min; ED50 [4, 16]: 2.8 mg/kg

**Q.** For `Cc1ccc(Cl)c(C[Si](C)(C)CN2CCCCC2)c1.Cl` [Example 35, N-{[(2-chloro-5-methylbenzyl)-dimethylsilyl]methyl}piperidine hydrochlorid], which ED50 [1] is on record?
**A.** The ED50 was 25.9 mg/kg.

**Q.** And the “Flexor reflex, duration of effect T75%” value [2, 8]?
**A.** Its value is > 180 min.

**Q.** What about the ED50 [4, 16] of the same compound?
**A.** The ED50 was 3.7 mg/kg.

**Q.** What does the source list for `C[Si](C)(Cc1ccc(F)cc1)CN1CCCCC1.Cl` [Example 2, N-{[dimethyl-(4-fluorobenzyl)silyl]methyl}piperidine hydrochloride]?
**A.** ED50 [1]: 21.8 mg/kg; Flexor reflex, duration of effect T75% [2, 8]: > 180 min; Flexor reflex, T75% ([2]; 12.5 mg/kg i.d.): 230 min; Flexor reflex, maximum inhibition ([2]; 12.5 mg/kg i.d.): 44.8%; Flexor reflex, T75% ([2]; 25 mg/kg i.d.): > 300 min; Flexor reflex, maximum inhibition ([2]; 25 mg/kg i.d.): 82.1%; duration of effect compared with 4-fold doses of the reference drugs ([2]; i.d.): exceeded even the duration of effect of 4-fold doses of the reference drugs; dose needed to achieve a given effect relative to the dose of the reference drugs ([2]; i.d., vs tolperisone and eperisone): half of the dose; LD50 at 48 h [3, 9]: 25.5 mg/kg; selectivity ratio [3, 10]: 9.1; LD50 at 48 h [3, 11]: 228 mg/kg; selectivity ratio [3, 12]: 8.3; therapeutic ratio in comparison to the reference drugs [5]: significantly more advantageous; ED50 [4, 13]: 2.8 mg/kg; ED50 [4, 16]: 2.8 mg/kg; ED50 [4, 14]: 27.6 mg/kg; ED50 [4, 15]: 27.6 mg/kg; activity relative to eperisone ([4]; oral route): 5 times; activity relative to tolperisone ([4]; oral route): 10 times

**Q.** Which induction of tremor [6] does the source give for `Cl.N=C(Cc1c(Cl)cccc1Cl)NC(N)=O` [LON-954] here?
**A.** The induction of tremor was “induces a tremor on mice”.

**Q.** For `C[Si](C)(CCCn1ccnc1)Cc1ccc(F)cc1.Cl` [Example 12, N-{[dimethyl-(4-fluorobenzyl)silyl]propyl}imidazole hydrochloride], which ED50 [1] is on record?
**A.** The ED50 was 26.9 mg/kg.

**Q.** What about the “inhibition of flexor reflex” value ([2]; 10 mg/kg i.v.) of the same compound?
**A.** The value was 40%.

**Q.** What about the “Flexor reflex, duration of effect T75%” value [2, 8] of the same compound?
**A.** The value was > 180 min.

**Q.** What about the ED50 [4, 16] of the same compound?
**A.** Its ED50 is 5.4 mg/kg.

**Q.** What does the source list for `C[Si](C)(CCCN1CCCC1)Cc1ccc(F)cc1.Cl` [Example 11, N-{[dimethyl-(4-fluorobenzyl)silyl]propyl}pyrrolidine hydrochloride]?
**A.** ED50 [1]: 27.5 mg/kg; Flexor reflex, duration of effect T75% [2, 8]: > 180 min; ED50 [4, 16]: 3.8 mg/kg

**Q.** With `N=C1SCCN1c1c(Cl)cccc1Cl` [GYKI-20039, reference compound] as the compound, how does the induction of tremor [4] read?
**A.** The induction of tremor was “induces a tremor on mice”.

**Q.** Which results are given for `C[Si](C)(CCCN1CCCCC1)Cc1ccccc1.Cl` [Example 19, N -[(benzyldimethylsilyl)propyl]piperidine hydrochloride]?
**A.** ED50 [1]: 22.3 mg/kg; Flexor reflex, duration of effect T75% [2, 8]: > 180 min; ED50 [4, 16]: 3.6 mg/kg

**Q.** With `CCc1ccc(C(=O)C(C)CN2CCCCC2)cc1` (centres unmarked) [Eperisone, eperisone, reference compound] as the compound, how does the ED50 [1, 7] read?
**A.** Its ED50 is 63.6 mg/kg.

**Q.** And the “Flexor reflex, duration of effect T75%” value [2, 8]?
**A.** The value was 90 min.

**Q.** What about the “Flexor reflex, T75%” value ([2]; 25 mg/kg i.d.) of the same compound?
**A.** Its value is 60 min.

**Q.** What about the “Flexor reflex, maximum inhibition” value ([2]; 25 mg/kg i.d.) of the same compound?
**A.** Its value is 38.5%.

**Q.** And the “Flexor reflex, T75%” value ([2]; 50 mg/kg i.d.)?
**A.** Its value is 190 min.

**Q.** What about the “Flexor reflex, maximum inhibition” value ([2]; 50 mg/kg i.d.) of the same compound?
**A.** Its value is 74.8%.

**Q.** And the LD50 at 48 h [3, 9]?
**A.** The LD50 at 48 h was 53.4 mg/kg.

**Q.** What about the selectivity ratio [3, 10] of the same compound?
**A.** The selectivity ratio was 6.8.

**Q.** And the LD50 at 48 h [3, 11]?
**A.** The LD50 at 48 h was 320 mg/kg.

**Q.** What about the selectivity ratio [3, 12] of the same compound?
**A.** The selectivity ratio was 2.5.

**Q.** And the ED50 [4, 13]?
**A.** The ED50 was 7.8 mg/kg.

**Q.** And the ED50 [4, 16]?
**A.** Its ED50 is 7.8 mg/kg.

**Q.** What about the ED50 [4, 14] of the same compound?
**A.** The ED50 was 126 mg/kg.

**Q.** What about the ED50 [4, 15] of the same compound?
**A.** The ED50 was 126 mg/kg.
